From US20130303509A1, “NAMPT INHIBITORS” (AbbVie Inc., priority 2012, published 2013)

Tested on: PC3 cells
Assay: NAMPT Cell Proliferation Assay
Assay type: cell-based
Settings: Homo sapiens, PC-3, 120 h, 5 days incubation, cell viability by Cell Titer Glo
How it was run: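 Seeded at 500 cells/well in RPMI with 10% heat-inactivated FBS and left to attach overnight at 37° C, 5% CO2. Compounds were added as 10-fold dilutions […] for 5 days, then viability was read by CellTiter-Glo. IC50s came from sigmoidal fits of percent inhibition.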

Row | Compound | IC50 [nM]
1 | O=C(Nc1ccc(C2CCN(C(=O)C3CCOC3)CC2)cc1)C1CN(c2cccnn2)C1 (centres unmarked) [Example 414, 1-(pyridazin-3-yl)-N-{4-[1-(tetrahydrofuran-3-ylcarbonyl)piperidin-4-yl]phenyl}azetidine-3-carboxamide] | 7.4
2 | O=C(Nc1ccc(C2CCN(C(=O)CCCc3cccs3)CC2)cc1)C1CN(c2cccnn2)C1 [Example 415, 1-(pyridazin-3-yl)-N-(4-{1-[4-(thiophen-2-yl)butanoyl]piperidin-4-yl}phenyl)azetidine-3-carboxamide] | 2.28
3 | O=C(Nc1ccc(C2CCN(C(=O)c3cc(F)ccc3F)CC2)cc1)C1CN(c2cccnn2)C1 [Example 416, N-{4-[1-(2,5-difluorobenzoyl)piperidin-4-yl]phenyl}-1-(pyridazin-3-yl)azetidine-3-carboxamide] | 1.12
4 | O=C(Nc1ccc(C2CCN(C(=O)C3CCC3)CC2)cc1)C1CN(c2cccnn2)C1 [Example 417, N-{4-[1-(cyclobutylcarbonyl)piperidin-4-yl]phenyl}-1-(pyridazin-3-yl)azetidine-3-carboxamide] | 6.45
5 | Cc1ccc(S(=O)(=O)NCC(=O)N2CCC(c3ccc(NC(=O)C4CN(c5cccnn5)C4)cc3)CC2)cc1 [Example 418, N-[4-(1-{N-[(4-methylphenyl)sulfonyl]glycyl}piperidin-4-yl)phenyl]-1-(pyridazin-3-yl)azetidine-3-carboxamide] | 8.26
6 | O=C(Nc1ccc(C2CCN(C(=O)Cc3cccc(F)c3F)CC2)cc1)C1CN(c2cccnn2)C1 [Example 419, N-(4-{1-[(2,3-difluorophenyl)acetyl]piperidin-4-yl}phenyl)-1-(pyridazin-3-yl)azetidine-3-carboxamide] | 2.17
7 | CO[C@H](C(=O)N1CCC(c2ccc(NC(=O)C3CN(c4cccnn4)C3)cc2)CC1)c1ccccc1 [Example 420, N-(4-{1-[(2S)-2-methoxy-2-phenylacetyl]piperidin-4-yl}phenyl)-1-(pyridazin-3-yl)azetidine-3-carboxamide] | 2.35
8 | O=C(Nc1ccc(C2CCN(C(=O)Cc3ccc4ccccc4c3)CC2)cc1)C1CN(c2cccnn2)C1 [Example 421, N-{4-[1-(naphthalen-2-ylacetyl)piperidin-4-yl]phenyl}-1-(pyridazin-3-yl)azetidine-3-carboxamide] | 3.72
9 | O=C(Nc1ccc(C2CCN(C(=O)CCc3ccccc3)CC2)cc1)C1CN(c2cccnn2)C1 [Example 422, N-{4-[1-(3-phenylpropanoyl)piperidin-4-yl]phenyl}-1-(pyridazin-3-yl)azetidine-3-carboxamide] | 1.12
10 | O=C(Nc1ccc(C2CCN(C(=O)Cc3c(Cl)cccc3Cl)CC2)cc1)C1CN(c2cccnn2)C1 [Example 423, N-(4-{1-[(2,6-dichlorophenyl)acetyl]piperidin-4-yl}phenyl)-1-(pyridazin-3-yl)azetidine-3-carboxamide] | 0.38
11 | O=C(Nc1ccc(C2CCN(C(=O)CCS(=O)(=O)c3ccccc3)CC2)cc1)C1CN(c2cccnn2)C1 [Example 424, N-(4-{1-[3-(phenylsulfonyl)propanoyl]piperidin-4-yl}phenyl)-1-(pyridazin-3-yl)azetidine-3-carboxamide] | 1.5
12 | O=C(Nc1ccc(C2CCN(C(=O)c3ccsc3)CC2)cc1)C1CN(c2cccnn2)C1 [Example 425, 1-(pyridazin-3-yl)-N-{4-[1-(thiophen-3-ylcarbonyl)piperidin-4-yl]phenyl}azetidine-3-carboxamide] | 0.91
13 | Cc1cc(C(=O)N2CCC(c3ccc(NC(=O)C4CN(c5cccnn5)C4)cc3)CC2)c(C)o1 [Example 426, N-(4-{1-[(2,5-dimethylfuran-3-yl)carbonyl]piperidin-4-yl}phenyl)-1-(pyridazin-3-yl)azetidine-3-carboxamide] | 2.07
14 | O=C(Nc1ccc(C2CCN(C(=O)CC3CC3)CC2)cc1)C1CN(c2cccnn2)C1 [Example 427, N-{4-[1-(cyclopropylacetyl)piperidin-4-yl]phenyl}-1-(pyridazin-3-yl)azetidine-3-carboxamide] | 2.03
15 | O=C(Nc1ccc(C2CCN(C(=O)c3ccccc3F)CC2)cc1)C1CN(c2cccnn2)C1 [Example 428, N-{4-[1-(2-fluorobenzoyl)piperidin-4-yl]phenyl}-1-(pyridazin-3-yl)azetidine-3-carboxamide] | 0.19
16 | Cc1ccccc1C(=O)N1CCC(c2ccc(NC(=O)C3CN(c4cccnn4)C3)cc2)CC1 [Example 429, N-{4-[1-(2-methylbenzoyl)piperidin-4-yl]phenyl}-1-(pyridazin-3-yl)azetidine-3-carboxamide] | 0.8
17 | O=C(Nc1ccc(C2CCN(C(=O)c3cscn3)CC2)cc1)C1CN(c2cccnn2)C1 [Example 430, 1-(pyridazin-3-yl)-N-{4-[1-(1,3-thiazol-4-ylcarbonyl)piperidin-4-yl]phenyl}azetidine-3-carboxamide] | 1.42
18 | O=C(Nc1ccc(C2CCN(C(=O)c3cncs3)CC2)cc1)C1CN(c2cccnn2)C1 [Example 431, 1-(pyridazin-3-yl)-N-{4-[1-(1,3-thiazol-5-ylcarbonyl)piperidin-4-yl]phenyl}azetidine-3-carboxamide] | 1.67

Row | Compound | IC50 [nM]
19 | CCOCC(=O)N1CCC(c2ccc(NC(=O)C3CN(c4cccnn4)C3)cc2)CC1 [Example 432, N-{4-[1-(ethoxyacetyl)piperidin-4-yl]phenyl}-1-(pyridazin-3-yl)azetidine-3-carboxamide] | 8
20 | O=C(Nc1ccc(C2CCN(C(=O)CCC(F)(F)F)CC2)cc1)C1CN(c2cccnn2)C1 [Example 433, 1-(pyridazin-3-yl)-N-{4-[1-(4,4,4-trifluorobutanoyl)piperidin-4-yl]phenyl}azetidine-3-carboxamide] | 5.77
21 | Cc1ccc(C(=O)N2CCC(c3ccc(NC(=O)C4CN(c5cccnn5)C4)cc3)CC2)cn1 [Example 434, N-(4-{1-[(6-methylpyridin-3-yl)carbonyl]piperidin-4-yl}phenyl)-1-(pyridazin-3-yl)azetidine-3-carboxamide] | 6.35
22 | O=C(Nc1ccc(C2CCN(C(=O)c3ccccc3)CC2)cc1)C1CN(c2cccnn2)C1 [Example 435, N-[4-(1-benzoylpiperidin-4-yl)phenyl]-1-(pyridazin-3-yl)azetidine-3-carboxamide] | 0.3
23 | O=C(Nc1ccc(C2CCN(C(=O)c3ccco3)CC2)cc1)C1CN(c2cccnn2)C1 [Example 436, N-{4-[1-(furan-2-ylcarbonyl)piperidin-4-yl]phenyl}-1-(pyridazin-3-yl)azetidine-3-carboxamide] | 0.67
24 | CC1(C(=O)N2CCC(c3ccc(NC(=O)C4CN(c5cccnn5)C4)cc3)CC2)CCCCC1 [Example 437, N-(4-{1-[(1-methylcyclohexyl)carbonyl]piperidin-4-yl}phenyl)-1-(pyridazin-3-yl)azetidine-3-carboxamide] | 0.98
25 | CC(=O)C(=O)N1CCC(c2ccc(NC(=O)C3CN(c4cccnn4)C3)cc2)CC1 [Example 438, N-{4-[1-(2-oxopropanoyl)piperidin-4-yl]phenyl}-1-(pyridazin-3-yl)azetidine-3-carboxamide] | 1.96
26 | O=C(Nc1ccc(C2CCN(C(=O)C3CCCC3)CC2)cc1)C1CN(c2cccnn2)C1 [Example 439, N-{4-[1-(cyclopentylcarbonyl)piperidin-4-yl]phenyl}-1-(pyridazin-3-yl)azetidine-3-carboxamide] | 3.36
27 | CCC(=O)N1CCC(c2ccc(NC(=O)C3CN(c4cccnn4)C3)cc2)CC1 [Example 440, N-[4-(1-propanoylpiperidin-4-yl)phenyl]-1-(pyridazin-3-yl)azetidine-3-carboxamide] | 1.8
28 | Cc1ccc(C(=O)N2CCC(c3ccc(NC(=O)C4CN(c5cccnn5)C4)cc3)CC2)cc1 [Example 441, N-{4-[1-(4-methylbenzoyl)piperidin-4-yl]phenyl}-1-(pyridazin-3-yl)azetidine-3-carboxamide] | 6.83
29 | O=C(Nc1ccc(O[C@@H]2CCN(C(=O)c3ccccc3Cl)C2)cc1)C1CN(c2ccnnc2)C1 [Example 442, N-(4-{[(3R)-1-(2-chlorobenzoyl)pyrrolidin-3-yl]oxy}phenyl)-1-(pyridazin-4-yl)azetidine-3-carboxamide] | 6.25
30 | O=C(Nc1ccc(O[C@@H]2CCN(C(=O)c3nccs3)C2)cc1)C1CN(c2ccnnc2)C1 [Example 443, 1-(pyridazin-4-yl)-N-(4-{[(3R)-1-(1,3-thiazol-2-ylcarbonyl)pyrrolidin-3-yl]oxy}phenyl)azetidine-3-carboxamide] | 5.65
31 | O=C(Nc1ccc(O[C@@H]2CCN(C(=O)CC3CC3)C2)cc1)C1CN(c2ccnnc2)C1 [Example 444, N-(4-{[(3R)-1-(cyclopropylacetyl)pyrrolidin-3-yl]oxy}phenyl)-1-(pyridazin-4-yl)azetidine-3-carboxamide] | 78
32 | CC[C@H](C)C(=O)N1CC[C@@H](Oc2ccc(NC(=O)C3CN(c4ccnnc4)C3)cc2)C1 [Example 445, N-[4-({(3R)-1-[(2S)-2-methylbutanoyl]pyrrolidin-3-yl}oxy)phenyl]-1-(pyridazin-4-yl)azetidine-3-carboxamide] | 19.1
33 | O=C(Nc1ccc(O[C@@H]2CCN(C(=O)C3CCOCC3)C2)cc1)C1CN(c2ccnnc2)C1 [Example 446, 1-(pyridazin-4-yl)-N-(4-{[(3R)-1-(tetrahydro-2H-pyran-4-ylcarbonyl)pyrrolidin-3-yl]oxy}phenyl)azetidine-3-carboxamide] | 108
34 | O=C(Nc1ccc(O[C@@H]2CCN(C(=O)Cc3ccc(OC(F)(F)F)cc3)C2)cc1)C1CN(c2ccnnc2)C1 [Example 447, 1-(pyridazin-4-yl)-N-(4-{[(3R)-1-{[4-(trifluoromethoxy)phenyl]acetyl}pyrrolidin-3-yl]oxy}phenyl)azetidine-3-carboxamide] | 903
35 | O=C(Nc1ccc(O[C@@H]2CCN(C(=O)c3ccsc3)C2)cc1)C1CN(c2ccnnc2)C1 [Example 448, 1-(pyridazin-4-yl)-N-(4-{[(3R)-1-(thiophen-3-ylcarbonyl)pyrrolidin-3-yl]oxy}phenyl)azetidine-3-carboxamide] | 9.32
